In the NIST ThermoML archive (doi:10.1021/acs.jced.6b00365):

Details: dynamic light scattering

Cc1ccccc1 [toluene]
Liquid
Details	thermal diffusivity [m2/s]
302.9 K	8.63e-08
312.45 K	8.33e-08
323.07 K	8.03e-08
333.27 K	7.77e-08
343.52 K	7.52e-08
353.73 K	7.3e-08
363.73 K	7.09e-08
373.04 K	6.9e-08
382.94 K	6.71e-08
392.88 K	6.52e-08
402.93 K	6.33e-08
413.06 K	6.15e-08
422.73 K	5.98e-08
432.67 K	5.81e-08
442.68 K	5.64e-08
452.96 K	5.48e-08
462.99 K	5.33e-08
473.2 K	5.19e-08
482.98 K	5.06e-08
493.05 K	4.94e-08
503.17 K	4.84e-08
513.41 K	4.74e-08
523.38 K	4.66e-08

CCOC(C)(C)C [2-ethoxy-2-methylpropane]
Details	thermal diffusivity [m2/s]
293.13 K, Liquid	5.67e-08
303.09 K, Liquid	5.45e-08
313.21 K, Liquid	5.16e-08
323.18 K, Liquid	4.96e-08
333.18 K, Liquid	4.79e-08
338.25 K, Liquid	4.7e-08
343.17 K, Liquid	4.64e-08
348.15 K, Liquid	4.55e-08
353.08 K, Liquid	4.49e-08
358.19 K, Liquid	4.43e-08
363.1 K, Liquid	4.38e-08
368.12 K, Liquid	4.33e-08
373.11 K, Liquid	4.3e-08
378.18 K, Liquid	4.26e-08
383.14 K, Liquid	4.2e-08
388.07 K, Liquid	4.17e-08
393.06 K, Liquid	4.15e-08
398.17 K, Liquid	4.1e-08
403.22 K, Liquid	4.08e-08
408.16 K, Liquid	4.02e-08
413.1 K, Liquid	4e-08
418.18 K, Liquid	3.97e-08
423.09 K, Liquid	3.95e-08
428.08 K, Liquid	3.9e-08
433.07 K, Gas	3.03e-07
433.18 K, Liquid	3.85e-08
438.17 K, Liquid	3.82e-08
443.06 K, Liquid	3.77e-08
443.25 K, Gas	2.57e-07
448.18 K, Liquid	3.74e-08
453.13 K, Gas	2.14e-07
453.18 K, Liquid	3.68e-08
458.1 K, Liquid	3.61e-08
463.05 K, Gas	1.7e-07
463.19 K, Liquid	3.53e-08
466.12 K, Liquid	3.5e-08
468.16 K, Gas	1.5e-07
469.18 K, Liquid	3.45e-08
472.09 K, Liquid	3.39e-08
473.25 K, Gas	1.28e-07
475.06 K, Liquid	3.33e-08
478.15 K, Liquid	3.25e-08
478.2 K, Gas	1.08e-07
481.24 K, Liquid	3.16e-08
483.18 K, Gas	8.76e-08
484.23 K, Liquid	3.05e-08
487.17 K, Liquid	2.95e-08
488.25 K, Gas	6.52e-08
490.09 K, Liquid	2.77e-08
493.14 K, Liquid	2.63e-08
493.22 K, Gas	3.68e-08
496.24 K, Liquid	2.27e-08

Liquid
Details	thermal diffusivity [m2/s]
372.96 K, 4000 kPa	4.4e-08
373.15 K, 7000 kPa	4.47e-08
373.16 K, 10000 kPa	4.5e-08
383.18 K, 10000 kPa	4.45e-08
383.35 K, 7000 kPa	4.41e-08
383.37 K, 4000 kPa	4.34e-08
392.97 K, 7000 kPa	4.35e-08
393 K, 4000 kPa	4.27e-08
393.05 K, 10000 kPa	4.4e-08
402.94 K, 4000 kPa	4.2e-08
402.99 K, 7000 kPa	4.28e-08
403.09 K, 10000 kPa	4.35e-08
413.25 K, 10000 kPa	4.3e-08
413.34 K, 7000 kPa	4.21e-08
413.35 K, 4000 kPa	4.12e-08
421.78 K, 4000 kPa	4.07e-08
421.86 K, 7000 kPa	4.16e-08
422.25 K, 10000 kPa	4.24e-08
431.42 K, 4000 kPa	4e-08
431.52 K, 7000 kPa	4.1e-08
432.83 K, 10000 kPa	4.18e-08
442.12 K, 4000 kPa	3.92e-08
442.19 K, 7000 kPa	4.04e-08
442.53 K, 10000 kPa	4.13e-08
452.09 K, 4000 kPa	3.85e-08
452.26 K, 7000 kPa	3.98e-08
452.4 K, 10000 kPa	4.08e-08
462.41 K, 4000 kPa	3.75e-08
462.47 K, 7000 kPa	3.92e-08
462.95 K, 10000 kPa	4.03e-08
472.45 K, 4000 kPa	3.65e-08
472.63 K, 7000 kPa	3.87e-08
472.63 K, 10000 kPa	3.99e-08
478.13 K, 10000 kPa	3.97e-08
478.14 K, 7000 kPa	3.84e-08
478.2 K, 4000 kPa	3.6e-08
482.44 K, 4000 kPa	3.52e-08
483.15 K, 7000 kPa	3.82e-08
483.2 K, 10000 kPa	3.95e-08
488.15 K, 7000 kPa	3.79e-08
488.65 K, 4000 kPa	3.44e-08
488.83 K, 10000 kPa	3.93e-08
493.13 K, 4000 kPa	3.34e-08
493.16 K, 7000 kPa	3.77e-08
493.3 K, 10000 kPa	3.92e-08

CCC(C)(C)OC [2-methoxy-2-methylbutane]
Details	thermal diffusivity [m2/s]
291.5 K, Liquid	6.65e-08
302.19 K, Liquid	6.36e-08
312.11 K, Liquid	6.17e-08
323 K, Liquid	5.95e-08
332.51 K, Liquid	5.75e-08
342.71 K, Liquid	5.5e-08
352.32 K, Liquid	5.33e-08
363.24 K, Liquid	5.18e-08
373.18 K, Liquid	5e-08
382.92 K, Liquid	4.84e-08
388.1 K, Liquid	4.75e-08
392.6 K, Liquid	4.68e-08
398.45 K, Liquid	4.61e-08
402.91 K, Liquid	4.55e-08
418.23 K, Liquid	4.36e-08
423 K, Liquid	4.3e-08
428.55 K, Liquid	4.24e-08
432.78 K, Liquid	4.2e-08
438.24 K, Liquid	4.14e-08
442.67 K, Liquid	4.1e-08
448.19 K, Liquid	4.04e-08
453.53 K, Liquid	3.98e-08
458.62 K, Liquid	3.95e-08
463.3 K, Liquid	3.9e-08
468.1 K, Liquid	3.87e-08
472 K, Liquid	3.83e-08
477.88 K, Gas	2.54e-07
478.34 K, Liquid	3.81e-08
482.92 K, Liquid	3.78e-08
483.74 K, Gas	2.3e-07
487.65 K, Gas	2.13e-07
488.23 K, Liquid	3.75e-08
492.26 K, Liquid	3.71e-08
493.04 K, Gas	1.9e-07
498.77 K, Liquid	3.63e-08
499.05 K, Gas	1.63e-07
501.9 K, Liquid	3.6e-08
502.72 K, Gas	1.45e-07
504.05 K, Liquid	3.58e-08
506.94 K, Liquid	3.52e-08
508.18 K, Gas	1.21e-07
508.48 K, Liquid	3.51e-08
511.05 K, Liquid	3.42e-08
511.38 K, Gas	1.05e-07
514.02 K, Liquid	3.36e-08
517.41 K, Gas	7.83e-08
517.73 K, Liquid	3.2e-08
519.01 K, Liquid	3.15e-08
522.19 K, Liquid	2.98e-08
522.45 K, Gas	4.2e-08

Liquid
Details	thermal diffusivity [m2/s]
373.1 K, 7000 kPa	5.35e-08
373.11 K, 4000 kPa	5.2e-08
373.12 K, 10000 kPa	5.47e-08
382.8 K, 4000 kPa	5.08e-08
382.83 K, 7000 kPa	5.23e-08
382.94 K, 10000 kPa	5.36e-08
392.61 K, 4000 kPa	4.9e-08
392.63 K, 7000 kPa	5.09e-08
392.73 K, 10000 kPa	5.23e-08
402.72 K, 4000 kPa	4.77e-08
402.77 K, 7000 kPa	4.93e-08
402.81 K, 10000 kPa	5.07e-08
412.73 K, 4000 kPa	4.66e-08
412.76 K, 7000 kPa	4.81e-08
412.86 K, 10000 kPa	4.94e-08
422.87 K, 10000 kPa	4.82e-08
423 K, 4000 kPa	4.52e-08
423.06 K, 7000 kPa	4.69e-08
432.66 K, 4000 kPa	4.42e-08
432.76 K, 7000 kPa	4.59e-08
432.8 K, 10000 kPa	4.72e-08
442.61 K, 4000 kPa	4.31e-08
442.7 K, 7000 kPa	4.47e-08
442.73 K, 10000 kPa	4.6e-08
453.25 K, 10000 kPa	4.51e-08
453.47 K, 4000 kPa	4.2e-08
453.58 K, 7000 kPa	4.37e-08
463.14 K, 4000 kPa	4.14e-08
463.21 K, 7000 kPa	4.31e-08
463.25 K, 10000 kPa	4.44e-08
472.15 K, 4000 kPa	4.08e-08
472.25 K, 7000 kPa	4.26e-08
472.35 K, 10000 kPa	4.39e-08
478.13 K, 10000 kPa	4.36e-08
478.14 K, 7000 kPa	4.22e-08
478.39 K, 4000 kPa	4.06e-08
483.16 K, 7000 kPa	4.19e-08
483.16 K, 10000 kPa	4.32e-08
483.31 K, 4000 kPa	4.02e-08
488.17 K, 7000 kPa	4.16e-08
488.18 K, 10000 kPa	4.29e-08
488.54 K, 4000 kPa	3.98e-08
492.58 K, 4000 kPa	3.96e-08
493.13 K, 7000 kPa	4.13e-08
493.14 K, 10000 kPa	4.26e-08
498.16 K, 10000 kPa	4.22e-08
498.25 K, 7000 kPa	4.08e-08
499 K, 4000 kPa	3.9e-08
503.15 K, 10000 kPa	4.18e-08
503.16 K, 4000 kPa	3.85e-08
503.2 K, 7000 kPa	4.04e-08
508.09 K, 7000 kPa	3.99e-08
508.14 K, 10000 kPa	4.15e-08
508.25 K, 4000 kPa	3.8e-08
512.28 K, 4000 kPa	3.72e-08
512.29 K, 7000 kPa	3.94e-08
512.53 K, 10000 kPa	4.12e-08
517.79 K, 4000 kPa	3.63e-08
517.85 K, 7000 kPa	3.9e-08
518.05 K, 10000 kPa	4.08e-08
523.25 K, 4000 kPa	3.53e-08
523.25 K, 7000 kPa	3.84e-08
523.25 K, 10000 kPa	4.05e-08
